These results are taken from patent US20100311714A1, “1H-IMIDAZO[4,5-c]QUINOLINONE COMPOUNDS” (priority 2009, published 2010).

Where two headings read alike, the source gives them in different places.

One data set addresses T1, PI3K beta (Homo sapiens, UniProt P42338).
T1 construct: for the full-length p110-b subunit are generated and fused by overlapping PCR; His tag (C); made in house; host or cells: baculovirus BV949; Tn5 (Trichoplusia ni) or TiniPro insect cells
Description: PI3K beta kinase assay (Kinase-Glo luminescence). It counts as biochemical. Summed up:
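Kinase-Glo luminescence read out ATP left after a 60-min room-temperature reaction, started with ATP (1 μM final) on 25 nM His-tagged p85 iSH2–p110β (BV949) plus 10 μg/mL PI substrate in pH 7.5 Tris buffer. Percent inhibition at eight concentrations was fitted to a four-parameter logistic model for IC50.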

Data set [1] in a line: Parallel Artificial Membrane Permeability Assay (PAMPA) at pH 6.8. It counts as physicochemical. Summed up:
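Reported as log Pe, membrane permeability was determined by parallel artificial membrane assay at pH 6.8 per Wohnsland–Faller.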
A general note: In PAMPA a lipid-coated filter parts donor from acceptor wells.

T1 sequence (P42338 with tags, fused parts or gaps limits assumed): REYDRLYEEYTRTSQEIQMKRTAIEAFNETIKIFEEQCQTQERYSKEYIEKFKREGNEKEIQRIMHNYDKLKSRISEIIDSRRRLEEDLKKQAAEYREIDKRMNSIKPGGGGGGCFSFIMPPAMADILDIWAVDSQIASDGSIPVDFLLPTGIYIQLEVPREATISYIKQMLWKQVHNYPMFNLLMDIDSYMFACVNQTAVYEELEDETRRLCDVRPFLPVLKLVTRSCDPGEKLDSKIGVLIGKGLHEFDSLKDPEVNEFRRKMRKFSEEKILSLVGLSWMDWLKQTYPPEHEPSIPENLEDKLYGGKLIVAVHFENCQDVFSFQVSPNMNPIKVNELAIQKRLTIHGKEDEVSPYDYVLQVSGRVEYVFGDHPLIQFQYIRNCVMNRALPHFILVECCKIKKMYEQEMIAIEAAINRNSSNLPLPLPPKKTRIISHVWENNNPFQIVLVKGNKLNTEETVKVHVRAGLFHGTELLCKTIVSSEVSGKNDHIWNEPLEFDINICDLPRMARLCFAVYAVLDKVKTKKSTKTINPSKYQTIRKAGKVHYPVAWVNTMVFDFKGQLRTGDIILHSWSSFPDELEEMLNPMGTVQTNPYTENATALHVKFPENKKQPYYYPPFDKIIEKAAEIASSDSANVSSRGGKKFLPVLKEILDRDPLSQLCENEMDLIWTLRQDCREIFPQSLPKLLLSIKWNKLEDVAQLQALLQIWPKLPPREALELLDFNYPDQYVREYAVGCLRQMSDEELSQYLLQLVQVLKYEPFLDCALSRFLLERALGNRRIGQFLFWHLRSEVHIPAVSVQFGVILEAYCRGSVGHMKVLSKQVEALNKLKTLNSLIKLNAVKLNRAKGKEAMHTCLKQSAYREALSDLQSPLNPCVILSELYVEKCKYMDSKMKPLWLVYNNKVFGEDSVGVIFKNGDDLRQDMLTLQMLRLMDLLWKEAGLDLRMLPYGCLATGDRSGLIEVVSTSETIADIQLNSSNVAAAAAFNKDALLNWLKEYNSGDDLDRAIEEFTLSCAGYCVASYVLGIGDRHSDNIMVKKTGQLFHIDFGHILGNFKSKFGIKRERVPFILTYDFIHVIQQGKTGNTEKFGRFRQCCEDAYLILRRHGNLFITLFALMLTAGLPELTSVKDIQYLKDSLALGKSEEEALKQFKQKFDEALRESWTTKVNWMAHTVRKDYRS

With `COc1ccc(-c2ccc3ncc4c(c3c2)n(-c2cccnc2OC)c(=O)n4C)cn1` [Example 1.1, 1-(2-Methoxy-pyridin-3-yl)-8-(6-methoxy-pyridin-3-yl)-3-methyl-1,3-dihydro-imidazo[4,5-c]quinolin-2-one], the IC50 on PI3K beta (read-out: PI3Kbeta/IC50) is 202 nM. Besides, the “HT-perm/logPe pH6.8” value in data set [1] was −3.6.
In the same order, the values of `COc1ncccc1-n1c(=O)n(C)c2cnc3ccc(-c4cnc(N)c(C(F)(F)F)c4)cc3c21` [Example 1.3, 8-(6-Amino-5-trifluoromethyl-pyridin-3-yl)-1-(2-methoxy-pyridin-3-yl)-3-methyl-1,3-dihydro-imidazo[4,5-c]quinolin-2-one] are 23 nM and −3.8.
The like results for `CNc1ccc(-c2ccc3ncc4c(c3c2)n(-c2cccnc2OC)c(=O)n4C)cn1` [Example 1.4, 1-(2-Methoxy-pyridin-3-yl)-3-methyl-8-(6-methylamino-pyridin-3-yl)-1,3-dihydro-imidazo[4,5-c]quinolin-2-one] were, in that order, 374 nM and −3.9.
In the case of `CCOc1ccc(-c2ccc3ncc4c(c3c2)n(-c2cccnc2OC)c(=O)n4C)cn1` [Example 1.5, 8-(6-Ethoxy-pyridin-3-yl)-1-(2-methoxy-pyridin-3-yl)-3-methyl-1,3-dihydro-imidazo[4,5-c]quinolin-2-one], the IC50 at PI3K beta (read-out: PI3Kbeta/IC50) stood at 505 nM. Besides, the “HT-perm/logPe pH6.8” value in data set [1] is given as −3.6.
For `COc1ncccc1-n1c(=O)n(C)c2cnc3ccc(-c4cnc5c(ccn5C)c4)cc3c21` [Example 1.7, 1-(2-Methoxy-pyridin-3-yl)-3-methyl-8-(1-methyl-1H-pyrrolo[2,3-b]pyridin-5-yl)-1,3-dihydro-imidazo[4,5-c]quinolin-2-one], the “HT-perm/logPe pH6.8” value in data set [1] is listed as −3.8.
Same read-out and setting: with `COc1ncccc1-n1c(=O)n(C)c2cnc3ccc(-c4ccc(F)nc4)cc3c21` [Example 1.8, 8-(6-Fluoro-pyridin-3-yl)-1-(2-methoxy-pyridin-3-yl)-3-methyl-1,3-dihydro-imidazo[4,5-c]quinolin-2-one] the figure was −3.7; with `COc1ncccc1-n1c(=O)n(C)c2cnc3ccc(-c4cnc(N(C)C)nc4)cc3c21` [Example 1.9, 8-(2-Dimethylamino-pyrimidin-5-yl)-1-(2-methoxy-pyridin-3-yl)-3-methyl-1,3-dihydro-imidazo[4,5-c]quinolin-2-one], −3.3.
With `CCOc1ccc(-c2ccc3ncc4c(c3c2)n(-c2cccnc2C)c(=O)n4C)cn1` [Example 2.1, 8-(6-Ethoxy-pyridin-3-yl)-3-methyl-1-(2-methyl-pyridin-3-yl)-1,3-dihydro-imidazo[4,5-c]quinolin-2-one], the IC50 on PI3K beta (read-out: PI3Kbeta/IC50) is 580 nM. In addition, the “HT-perm/logPe pH6.8” value in data set [1] is given as −3.7.
The like results for `CNc1ncc(-c2ccc3ncc4c(c3c2)n(-c2cccnc2C)c(=O)n4C)cn1` [Example 2.2, 3-Methyl-8-(2-methylamino-pyrimidin-5-yl)-1-(2-methyl-pyridin-3-yl)-1,3-dihydro-imidazo[4,5-c]quinolin-2-one] were, in that order, 165 nM and −4.7.
As to `Cc1ncccc1-n1c(=O)n(C)c2cnc3ccc(-c4cnc5c(ccn5C)c4)cc3c21` [Example 2.14, 3-Methyl-1-(2-methyl-pyridin-3-yl)-8-(1-methyl-1H-pyrrolo[2,3-b]pyridin-5-yl)-1,3-dihydro-imidazo[4,5-c]quinolin-2-one], on PI3K beta (read-out: PI3Kbeta/IC50), the IC50 amounted to 315 nM. Also, the “HT-perm/logPe pH6.8” value in data set [1] is on record as −3.9.
For `CCOc1cc(-c2ccc3ncc4c(c3c2)n(-c2cccnc2C)c(=O)n4C)cnc1C` [Example 2.22, 8-(5-Ethoxy-6-methyl-pyridin-3-yl)-3-methyl-1-(2-methyl-pyridin-3-yl)-1,3-dihydro-imidazo[4,5-c]quinolin-2-one], the IC50 on PI3K beta (read-out: EPK_PI3Kbeta/IC50) amounted to 201 nM. Also, in data set [1], the “HT-Perm logPe pH6.8” value was −3.7.
Turning to `Cc1cccnc1-n1c(=O)n(C)c2cnc3ccc(-c4cnc5ccccc5c4)cc3c21` [Example 3.8, 3-Methyl-1-(3-methyl-pyridin-2-yl)-8-quinolin-3-yl-1,3-dihydro-imidazo[4,5-c]quinolin-2-one], the “HT-perm/logPe pH6.8” value in data set [1] is recorded as −3.9.
Take `COc1ccc(-c2ccc3ncc4c(c3c2)n(-c2ncccc2C)c(=O)n4C)cn1` [Example 3.13, 8-(6-Methoxy-pyridin-3-yl)-3-methyl-1-(3-methyl-pyridin-2-yl)-1,3-dihydro-imidazo[4,5-c]quinolin-2-one]: in data set [1], the “HT-perm/logPe pH6.8” value was −3.7.
`COc1ccc(-c2ccc3ncc4c(c3c2)n(-c2cccnc2)c(=O)n4C)cc1OC` [Example 5.2, 8-(3,4-Dimethoxy-phenyl)-3-methyl-1-pyridin-3-yl-1,3-dihydro-imidazo[4,5-c]quinolin-2-one]: the IC50 at PI3K beta (read-out: PI3Kbeta/IC50) was 295 nM. In data set [1], the “HT-perm/logPe pH6.8” value was −3.9.
In the case of `COc1ccc(-c2ccc3ncc4c(c3c2)n(-c2cccnc2)c(=O)n4C)cn1` [Example 5.4, 8-(6-Methoxy-pyridin-3-yl)-3-methyl-1-pyridin-3-yl-1,3-dihydro-imidazo[4,5-c]quinolin-2-one], the IC50 on PI3K beta (read-out: PI3Kbeta/IC50) was found to be 263 nM. In addition, the “HT-perm/logPe pH6.8” value in data set [1] is reported as −3.7.
As to `CCNc1cc(-c2ccc3ncc4c(c3c2)n(-c2ccc(F)nc2C)c(=O)n4C)cnc1CO` [Example 7.9, 8-(5-Ethylamino-6-hydroxymethyl-pyridin-3-yl)-1-(6-fluoro-2-methyl-pyridin-3-yl)-3-methyl-1,3-dihydro-imidazo[4,5-c]quinolin-2-one], the IC50 at PI3K beta (read-out: EPK_PI3Kbeta/IC50) worked out at 69 nM. The “HT-Perm logPe pH6.8” value in data set [1] is recorded as −5.2.
Turning to `CNc1cc(-c2ccc3ncc4c(c3c2)n(-c2ccc(F)nc2C)c(=O)n4C)cnc1CO` [Example 7.11, 1-(6-Fluoro-2-methyl-pyridin-3-yl)-8-(6-hydroxymethyl-5-methylamino-pyridin-3-yl)-3-methyl-1,3-dihydro-imidazo[4,5-c]quinolin-2-one], on PI3K beta (read-out: EPK_PI3Kbeta/IC50), the IC50 came to 41 nM. Moreover, in data set [1], the “HT-Perm logPe pH6.8” value is listed as −5.4.
The like results for `CNc1ncc(-c2ccc3ncc4c(c3c2)n(-c2ccc(F)nc2C)c(=O)n4C)cc1F` [Example 7.12, 8-(5-Fluoro-6-methylamino-pyridin-3-yl)-1-(6-fluoro-2-methyl-pyridin-3-yl)-3-methyl-1,3-dihydro-imidazo[4,5-c]quinolin-2-one] were, in that order, 265 nM and −3.7.
For the compound `Cc1nc(F)ccc1-n1c(=O)n(C)c2cnc3ccc(-c4cnc(N)c(CO)c4)cc3c21` [Example 7.17, 8-(6-Amino-5-hydroxymethyl-pyridin-3-yl)-1-(6-fluoro-2-methyl-pyridin-3-yl)-3-methyl-1,3-dihydro-imidazo[4,5-c]quinolin-2-one], the IC50 on PI3K beta (read-out: EPK_PI3Kbeta/IC50) was determined as 188 nM.
`COCCN(C)c1ccc(-n2c(=O)n(C)c3cnc4ccc(-c5cnc(CO)c(OC)c5)cc4c32)c(C)n1` [Example 15.9, 8-(6-Hydroxymethyl-5-methoxy-pyridin-3-yl)-1-{6-[(2-methoxy-ethyl)-methyl-amino]-2-methyl-pyridin-3-yl}-3-methyl-1,3-dihydro-imidazo[4,5-c]quinolin-2-one]: the IC50 at PI3K beta (read-out: EPK_PI3Kbeta/IC50) worked out at 15 nM.
On the same count and under the same terms, with `CCOc1ccc(-c2ccc3ncc4c(c3c2)n(-c2ccc(NC(=O)COC)nc2C)c(=O)n4C)cn1` [Example 20.2, N-{5-[8-(6-Ethoxy-pyridin-3-yl)-3-methyl-2-oxo-2,3-dihydro-imidazo[4,5-c]quinolin-1-yl]-6-methyl-pyridin-2-yl}-2-methoxy-acetamide] the figure was 891 nM; with `CNc1ncc(-c2ccc3ncc4c(c3c2)n(-c2ccc(NC(=O)COC)nc2C)c(=O)n4C)cn1` [Example 20.3, 2-Methoxy-N-{6-methyl-5-[3-methyl-8-(2-methylamino-pyrimidin-5-yl)-2-oxo-2,3-dihydro-imidazo[4,5-c]quinolin-1-yl]-pyridin-2-yl}-acetamide], 2760 nM; with `CNc1ccc(-c2ccc3ncc4c(c3c2)n(-c2ccc(NC(=O)COC)nc2C)c(=O)n4C)cn1` [Example 20.4, 2-Methoxy-N-{6-methyl-5-[3-methyl-8-(6-methylamino-pyridin-3-yl)-2-oxo-2,3-dihydro-imidazo[4,5-c]quinolin-1-yl]-pyridin-2-yl}-acetamide], 592 nM.
In the case of `COCC(=O)Nc1ccc(-n2c(=O)n(C)c3cnc4ccc(-c5cncc(OC(C)C)c5)cc4c32)c(C)n1` [Example 20.5, N-{5-[8-(5-Isopropoxy-pyridin-3-yl)-3-methyl-2-oxo-2,3-dihydro-imidazo[4,5-c]quinolin-1-yl]-6-methyl-pyridin-2-yl}-2-methoxy-acetamide], at PI3K beta (read-out: EPK_PI3Kbeta/IC50), the IC50 is 542 nM.
As to `COCCOc1ccc(-n2c(=O)n(C)c3cnc4ccc(-c5cncc(N6CCC6)c5)cc4c32)c(C)n1` [Example 22.2, 8-(5-Azetidin-1-yl-pyridin-3-yl)-1-[6-(2-methoxy-ethoxy)-2-methyl-pyridin-3-yl]-3-methyl-1,3-dihydro-imidazo[4,5-c]quinolin-2-one], the IC50 on PI3K beta (read-out: EPK_PI3Kbeta/IC50) is 746 nM.
Regarding `COCCOc1ccc(-n2c(=O)n(C)c3cnc4ccc(-c5cnc(COC)c(OC)c5)cc4c32)c(C)n1` [Example 22.3, 1-[6-(2-Methoxy-ethoxy)-2-methyl-pyridin-3-yl]-8-(5-methoxy-6-methoxymethyl-pyridin-3-yl)-3-methyl-1,3-dihydro-imidazo[4,5-c]quinolin-2-one], on PI3K beta (read-out: EPK_PI3Kbeta/IC50), the IC50 was determined as 122 nM.
The same measure, in the same setting: with `CCNc1cc(-c2ccc3ncc4c(c3c2)n(-c2ccc(N3CC(F)(F)C3)nc2C)c(=O)n4C)cnc1CO` [Example 24.3, 1-[6-(3,3-Difluoro-azetidin-1-yl)-2-methyl-pyridin-3-yl]-8-(5-ethylamino-6-hydroxymethyl-pyridin-3-yl)-3-methyl-1,3-dihydro-imidazo[4,5-c]quinolin-2-one] the figure was 27 nM.
